Measurements: PubChem BioAssay AID2060614 (Molecular Pharmacology Branch, DTP, NCI, 2025)

Tested on: 598228-144-R-J1-PDC complex spheroids, viability
Assay: Anticancer human tumor 598228-144-R-J1-PDC patient-derived serous endometrial adenocarcinoma cell line growth inhibition [CLK]
Details: for IC50: curve of first compound; for viability, T/C: stronger effect = lower value; active = viability on the fitted dose curve at most 10% of control; inactive = the rest
Outline: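 Multi-cell-type spheroids combined patient-derived tumor cells with HUVEC endothelial cells and human mesenchymal stem cells. Paired agents were dosed in half-log steps down from about clinical Cmax, or from 10 microM where Cmax was unknown.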

[1] = second compound 0.0316 µM, first compound 0.0316 µM
[2] = second compound 0.0316 µM, first compound 0.1 µM
[3] = second compound 0.0316 µM, first compound 0.316 µM
[4] = second compound 0.0316 µM, first compound 1 µM
[5] = second compound 0.1 µM, first compound 0.0316 µM
[6] = second compound 0.1 µM, first compound 0.1 µM
[7] = second compound 0.1 µM, first compound 0.316 µM
[8] = second compound 0.1 µM, first compound 1 µM
[9] = second compound 0.316 µM, first compound 0.0316 µM
[10] = second compound 0.316 µM, first compound 0.1 µM
[11] = second compound 0.316 µM, first compound 0.316 µM
[12] = second compound 0.316 µM, first compound 1 µM
[13] = second compound 1 µM, first compound 0.0316 µM
[14] = second compound 1 µM, first compound 0.1 µM
[15] = second compound 1 µM, first compound 0.316 µM
[16] = second compound 1 µM, first compound 1 µM
[17] = second compound 3.16 µM, first compound 0.0316 µM
[18] = second compound 3.16 µM, first compound 0.1 µM
[19] = second compound 3.16 µM, first compound 0.316 µM
[20] = second compound 3.16 µM, first compound 1 µM
[21] = second compound 10 µM, first compound 0.0316 µM
[22] = second compound 10 µM, first compound 0.1 µM
[23] = second compound 10 µM, first compound 0.316 µM
[24] = second compound 10 µM, first compound 1 µM
[25] = second compound 0.0316 µM, first compound 0.00316 µM
[26] = second compound 0.0316 µM, first compound 0.01 µM
[27] = second compound 0.1 µM, first compound 0.00316 µM
[28] = second compound 0.1 µM, first compound 0.01 µM
[29] = second compound 0.316 µM, first compound 0.00316 µM
[30] = second compound 0.316 µM, first compound 0.01 µM
[31] = second compound 1 µM, first compound 0.00316 µM
[32] = second compound 1 µM, first compound 0.01 µM
[33] = second compound 3.16 µM, first compound 0.00316 µM
[34] = second compound 3.16 µM, first compound 0.01 µM
[35] = second compound 10 µM, first compound 0.00316 µM
[36] = second compound 10 µM, first compound 0.01 µM
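Note: spheroids exposed to compounds for seven days before readout.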
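Throughout, for viability, T/C: 100% = DMSO vehicle control wells.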

C=CC(=O)Nc1cc(Nc2nccc(-c3cn(C)c4ccccc34)n2)c(OC)cc1N(C)CCN(C)C + CN1CCN(c2cc(C(=O)Nc3cc4cc(-c5cnn(C)c5)ccc4cn3)ccn2)CC1
> 300 nM: IC50 (second compound 0.0316 µM) | IC50 (second compound 0.1 µM)
active: viability, T/C (second compound 1 µM, first compound 0.000949 µM) 1.75% | viability, T/C (second compound 1 µM, first compound 0.003 µM) 2.14% | viability, T/C (second compound 1 µM, first compound 0.00949 µM) 6.03% | viability, T/C (second compound 1 µM, first compound 0.03 µM) 1.51% | viability, T/C (second compound 1 µM, first compound 0.0949 µM) 1.29% | viability, T/C (second compound 1 µM, first compound 0.3 µM) 3.97% | viability, T/C (second compound 3.16 µM, first compound 0.000949 µM) 1.65% | viability, T/C (second compound 3.16 µM, first compound 0.003 µM) 1.56% | viability, T/C (second compound 3.16 µM, first compound 0.00949 µM) 2.1% | viability, T/C (second compound 3.16 µM, first compound 0.03 µM) 1.72% | viability, T/C (second compound 3.16 µM, first compound 0.0949 µM) 2.58% | viability, T/C (second compound 3.16 µM, first compound 0.3 µM) 2.49% | viability, T/C (second compound 10 µM, first compound 0.000949 µM) 1.18% | viability, T/C (second compound 10 µM, first compound 0.003 µM) 1.02% | viability, T/C (second compound 10 µM, first compound 0.00949 µM) 1.77% | viability, T/C (second compound 10 µM, first compound 0.03 µM) 1.25% | viability, T/C (second compound 10 µM, first compound 0.0949 µM) 5.91% | viability, T/C (second compound 10 µM, first compound 0.3 µM) 2.52%
inactive: viability, T/C (second compound 0.0316 µM, first compound 0.000949 µM) 133% | viability, T/C (second compound 0.0316 µM, first compound 0.003 µM) 108% | viability, T/C (second compound 0.0316 µM, first compound 0.00949 µM) 114% | viability, T/C (second compound 0.0316 µM, first compound 0.03 µM) 117% | viability, T/C (second compound 0.0316 µM, first compound 0.0949 µM) 108% | viability, T/C (second compound 0.0316 µM, first compound 0.3 µM) 98.8% | viability, T/C (second compound 0.1 µM, first compound 0.000949 µM) 127% | viability, T/C (second compound 0.1 µM, first compound 0.003 µM) 126% | viability, T/C (second compound 0.1 µM, first compound 0.00949 µM) 116% | viability, T/C (second compound 0.1 µM, first compound 0.03 µM) 112% | viability, T/C (second compound 0.1 µM, first compound 0.0949 µM) 103% | viability, T/C (second compound 0.1 µM, first compound 0.3 µM) 91.9% | viability, T/C (second compound 0.316 µM, first compound 0.000949 µM) 19.6% | viability, T/C (second compound 0.316 µM, first compound 0.003 µM) 17% | viability, T/C (second compound 0.316 µM, first compound 0.00949 µM) 17.1% | viability, T/C (second compound 0.316 µM, first compound 0.03 µM) 15.4% | viability, T/C (second compound 0.316 µM, first compound 0.0949 µM) 12.5% | viability, T/C (second compound 0.316 µM, first compound 0.3 µM) 14.6%
< 0.949 nM: IC50 (second compound 0.316 µM) | IC50 (second compound 1 µM) | IC50 (second compound 3.16 µM) | IC50 (second compound 10 µM)

CC(Nc1ccc2c(c1)OCCn1cc(N3C(=O)OCC3C(F)F)nc1-2)C(N)=O (stereo not drawn) + CN1CCN(c2cc(C(=O)Nc3cc4cc(-c5cnn(C)c5)ccc4cn3)ccn2)CC1
active: viability, T/C [11] 10.7% | viability, T/C [12] 6.85% | viability, T/C (second compound 0.316 µM, first compound 3.16 µM) 4.58% | viability, T/C (second compound 0.316 µM, first compound 10 µM) 7.75% | viability, T/C [13] 1.13% | viability, T/C [14] 0.87% | viability, T/C [15] 2.39% | viability, T/C [16] 0.6% | viability, T/C (second compound 1 µM, first compound 3.16 µM) 0.73% | viability, T/C (second compound 1 µM, first compound 10 µM) 0.42% | viability, T/C [17] 1.56% | viability, T/C [18] 1.01% | viability, T/C [19] 0.62% | viability, T/C [20] 0.69% | viability, T/C (second compound 3.16 µM, first compound 3.16 µM) 1.66% | viability, T/C (second compound 3.16 µM, first compound 10 µM) 1.62% | viability, T/C [21] 0.62% | viability, T/C [22] 0.46% | viability, T/C [23] 1.49% | viability, T/C [24] 0.44% | viability, T/C (second compound 10 µM, first compound 3.16 µM) 4.05% | viability, T/C (second compound 10 µM, first compound 10 µM) 2.58%
271 nM: IC50 (second compound 0.1 µM)
< 31.6 nM: IC50 (second compound 0.316 µM) | IC50 (second compound 1 µM) | IC50 (second compound 3.16 µM) | IC50 (second compound 10 µM)
inactive: viability, T/C [1] 97.7% | viability, T/C [2] 66.2% | viability, T/C [3] 67% | viability, T/C [4] 47.1% | viability, T/C (second compound 0.0316 µM, first compound 3.16 µM) 40.3% | viability, T/C (second compound 0.0316 µM, first compound 10 µM) 24.4% | viability, T/C [5] 87.9% | viability, T/C [6] 64.3% | viability, T/C [7] 44.9% | viability, T/C [8] 38.6% | viability, T/C (second compound 0.1 µM, first compound 3.16 µM) 26.5% | viability, T/C (second compound 0.1 µM, first compound 10 µM) 18.3% | viability, T/C [9] 12.3% | viability, T/C [10] 9.13%
885 nM: IC50 (second compound 0.0316 µM)

CCN1CCN(Cc2ccc(Nc3ncc(F)c(-c4cc(F)c5nc(C)n(C(C)C)c5c4)n3)nc2)CC1 + CN1CCN(c2cc(C(=O)Nc3cc4cc(-c5cnn(C)c5)ccc4cn3)ccn2)CC1
> 1000 nM: IC50 (second compound 0.0316 µM) | IC50 (second compound 0.1 µM)
< 3.16 nM: IC50 (second compound 0.316 µM) | IC50 (second compound 1 µM) | IC50 (second compound 3.16 µM) | IC50 (second compound 10 µM)
inactive: viability, T/C [25] 126% | viability, T/C [26] 113% | viability, T/C [1] 119% | viability, T/C [2] 112% | viability, T/C [3] 116% | viability, T/C [4] 103% | viability, T/C [27] 125% | viability, T/C [28] 122% | viability, T/C [5] 115% | viability, T/C [6] 115% | viability, T/C [7] 123% | viability, T/C [8] 107% | viability, T/C [29] 17.8% | viability, T/C [30] 17.6% | viability, T/C [9] 15.1% | viability, T/C [10] 19.9% | viability, T/C [11] 20.7% | viability, T/C [12] 24.4%
active: viability, T/C [31] 1.42% | viability, T/C [32] 5.67% | viability, T/C [13] 1.8% | viability, T/C [14] 1.54% | viability, T/C [15] 1.56% | viability, T/C [16] 6.64% | viability, T/C [33] 1.54% | viability, T/C [34] 3.86% | viability, T/C [17] 2.86% | viability, T/C [18] 1.78% | viability, T/C [19] 2.22% | viability, T/C [20] 5.76% | viability, T/C [35] 1% | viability, T/C [36] 3.61% | viability, T/C [21] 0.93% | viability, T/C [22] 1.25% | viability, T/C [23] 3.23% | viability, T/C [24] 3.64%

COc1c(OCCCN2CCOCC2)ccc2c3n(c(=NC(=O)c4cnc(N)nc4)nc12)CCN3 + CN1CCN(c2cc(C(=O)Nc3cc4cc(-c5cnn(C)c5)ccc4cn3)ccn2)CC1
inactive: viability, T/C [25] 98.2% | viability, T/C [26] 75.7% | viability, T/C [1] 46.8% | viability, T/C [2] 31.9% | viability, T/C [3] 15.7% | viability, T/C [27] 85.5% | viability, T/C [28] 66.5% | viability, T/C [5] 36.7% | viability, T/C [6] 23.5% | viability, T/C [7] 9.69% | viability, T/C [29] 10.5%
active: viability, T/C [4] 8.56% | viability, T/C [8] 10.4% | viability, T/C [30] 8.73% | viability, T/C [9] 5.42% | viability, T/C [10] 2.85% | viability, T/C [11] 2.66% | viability, T/C [12] 2.22% | viability, T/C [31] 1.16% | viability, T/C [32] 0.94% | viability, T/C [13] 0.73% | viability, T/C [14] 0.29% | viability, T/C [15] 1.53% | viability, T/C [16] 3.1% | viability, T/C [33] 0.95% | viability, T/C [34] 2.7% | viability, T/C [17] 0.9% | viability, T/C [18] 0.57% | viability, T/C [19] 1.8% | viability, T/C [20] 4.26% | viability, T/C [35] 0.66% | viability, T/C [36] 2.16% | viability, T/C [21] 2.49% | viability, T/C [22] 0.4% | viability, T/C [23] 0.59% | viability, T/C [24] 3.39%
19.5 nM: IC50 (second compound 0.1 µM)
< 3.16 nM: IC50 (second compound 0.316 µM) | IC50 (second compound 1 µM) | IC50 (second compound 3.16 µM) | IC50 (second compound 10 µM)
30.9 nM: IC50 (second compound 0.0316 µM)
